Measured values published in PMC7324608 (Scientific Reports, 2020).

How the values were obtained:
HpHtrA S164A [1] = target: T1, HpHtrA S164A (Helicobacter pylori, UniProt G2J5T2, S164A); test: thermal shift assay; type: binding; set-up: (HpHtrA, G18-K475, UniProt G2J5T2); GST (N, cleaved yes); made in house; host or cells: E. coli BL21
T1 sequence (G2J5T2 18-475 S164A): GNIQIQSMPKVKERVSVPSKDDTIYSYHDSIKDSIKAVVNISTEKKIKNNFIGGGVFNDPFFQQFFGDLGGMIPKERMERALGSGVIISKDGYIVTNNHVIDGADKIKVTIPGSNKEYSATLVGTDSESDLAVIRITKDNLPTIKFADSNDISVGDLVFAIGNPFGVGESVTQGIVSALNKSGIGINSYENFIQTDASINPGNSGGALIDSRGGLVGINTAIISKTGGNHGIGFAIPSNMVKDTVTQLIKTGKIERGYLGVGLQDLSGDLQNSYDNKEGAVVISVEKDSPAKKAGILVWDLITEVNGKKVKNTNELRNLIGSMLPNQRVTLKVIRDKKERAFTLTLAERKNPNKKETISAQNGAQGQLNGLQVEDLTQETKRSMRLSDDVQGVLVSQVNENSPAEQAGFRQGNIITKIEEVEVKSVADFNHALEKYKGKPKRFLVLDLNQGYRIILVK
Procedure: Recombinant HpHtrA proteins (wt, S164A, D165A, S166A, D168A) in 50 mM HEPES buffer (pH 7.4) were mixed with SYPRO Orange (Sigma-Aldrich, Vienna, Austria) to final concentrations of 4 µM HpHtrA and 7 × SYPRO Orange in a 96-well PCR plate. […] Fluorescence data was collected using an Applied Bioscience StepOne Plus PCR cycler (Thermo Fisher Scientific, Schwerte, Germany) during a temperature ramp from 25–95 °C (0.5 °C per min) with a 4 min hold at 25 °C and 95 °C. SYPRO Orange binds to exposed hydrophobic regions within the denatured HpHtrA proteins, which increases the fluorescence of the dye[57],[58]. The fluorescence emission signal can then be used to determine the melting temperature of the protein, which is located at the infliction point of the fluorescence signal curve. The experiment was performed in triplicates.

HpHtrA S164A [2] = target: T1, HpHtrA S164A; test: biochemical
Procedure: Synthesis of 2-Abz-AQRVAFY(3-NO2)-NH2. The peptide was assembled manually on a 20 µmol scale.
The side-chain protecting groups were Pbf for Arg, and Trt for Gln. Fmoc deprotection was carried out with 25% piperidine in DMF/NMP (80:20, v/v) for 3 min, and 12.5% piperidine in DMF/NMP (80:20, v/v) for 12 min. The double couplings (2x45 min) were accomplished with the mixture Fmoc-AA-OH/HOBt/HBTU/DIPEA (5:5:4.8:10 equiv.). 2 -Boc-Abz-OH was coupled with the same protocol.
Afterwards, the peptidyl-resin was treated with 25% piperidine in DMF/NMP (80:20, v/v) (2x12 min) to deacylate the 3-nitro-tyrosine side chain. The peptide was simultaneously cleaved from the resin and deprotected by using the mixture TFA/H2O/TIA/EDT/TIS (90:3:1:3:3; Vtot = 1 ml) for about 3 h, precipitated from ice-cold diethyl ether, recovered by centrifugation at 4 °C for 6 min, washed four times with ice-cold diethyl ether, and dried in vacuo. The solid was dissolved in water and lyophilized.
Microscale thermophoresis .
D168A, MicroScale Thermophoresis (MST) analysis was performed using the Monolith NT.115 (NanoTemper Technologies). HpHtrA proteases were labeled with red fluorescent dye NT -650-NHS (amine reactive) according to the manufacturer’s protocol. Remaining free dye was removed by buffer exchange column chromatography and proteins were eluted in 50 mM Tris pH 7.4, 150 mM NaCl, 0.04% Tween. 5 nM of labelled HpHtrA was incubated for 15 minutes at RT with decreasing […]
Measurement was performed with premium treated capillaries (NanoTemper Technologies) and the Monolith NT.115 Microscale Thermophoresis device. Data analysis was performed with MO.Affinity Analysis v2.3 (NanoTemper Technologies) and GraphPad Prism Software (Version 8.0.2). Three independent experiments were […]

| Compound | thermal destabilization (ΔTm) (HpHtrA S164A [1]; higher concentrations of ion) | thermal stabilization (ΔTm) (HpHtrA S164A [1]; low/increasing concentrations of ion) | Kd (HpHtrA S164A [2]) [µM] | Response amplitude (HpHtrA S164A [2]; MST, 5 nM labelled HpHtrA S164A) | S/N (signal to noise ratio) (HpHtrA S164A [2]; MST, HpHtrA S164A) |
| --- | --- | --- | --- | --- | --- |
| [Cu+2] [Cu^++, CuCl2] | destabilized | stabilized | – | – | – |
| [Zn+2] [Zn^++, ZnCl2] | – | – | 55 ± 34 | 3.6 | 6.0 |
